{"source": "patent US8859587B2", "about": "“(2E)-3-phenyl-N-[2,2,2-Trifluoro-1-[[8-quinolineamino)thiomethyl]amino]ethyl]-2-acrylamide and pharmaceutical uses thereof” (Chinese PLA General Hospital, priority 2010, dated 2014)", "format_in_all_cases": "cell-based, Wistar rats", "key": {"[1]": {"system": "caspase-12 and cleaved caspase-12", "test": "Western blot of caspase-12 and cleaved caspase-12 in TM-induced cardiac muscle cells", "settings": "TM 5 μg/ml induction alone", "protocol": "(12000 rpm×10 min), collected supernatant. Nitrocellulose membrane was dipped in a transferring buffer for 15-20 min in advance. Sampled in 50 μg protein/lane, subjected to 10% polyacrylamide gel SDS-PAGE electrophoretic separation, the gel was then tiled in electrotransferring clamp, in which sponge, filter paper, gel, nitrocellulose membrane, filter paper and sponge were mounted from negative electrode to positive electrode in order. Constant current 350 mA, electrotransferred for 45 min. Electrotransferring membrane to […], the nitrocellulose membrane was taken out, the membrane was washed with TBST for 2 min, sealed with 5% defatted milk powder at room temperature for 1 h, added with first antibody (1:1000) and incubated at 4° C. overnight, the membrane was washed with TBST, 3 times×5 min, then […] second antibody was added, incubated at room temperature for 1 h, washed with TBST, 3 times×5 min, soaked separately with TSM1 and TSM2 for 5 min and 10 min, developed with chromogenic substrates 6.6 μl NBT and 3.3 μl BCIP dissolved in 1 ml of TSM2, after bonds become clear, the reaction was terminated by washing with water. After the end of development, the records were stored by scanning or taking photos."}, "[2]": {"system": "primary cardiac muscle cells induced by TM", "test": "Cardiomyocyte apoptosis induced by TM, AnnexinV-FITC flow cytometer", "settings": "TM 5 μg/ml alone, 24 h", "protocol": "(§1) The primary cardiac muscle cells obtained by the method according to the culture method of primary cardiac muscle cells of Example 1 were added with tunicamycin (TM) on the 4th day to perform interference test. The cells were randomly divided into 5 groups: solvent control group (DMSO), TM interference group (5 μg/ml), Compound of Formula I+TM interference group (10 μM+5 μg/ml), Compound of Formula I interference group ([…]+5 μg/ml), Compound of Formula I interference group ([…]+5 μg/ml).\nit is 24 h after drug interference, the cells were treated by the method of AnnexinV-FITC apoptosis kit, and the apoptosis was detected within 1 h by using a flow cytometer (BD ACScalibur, US Becton-Dickinson Company). For each sample, 14000 cells were collected and analyzed, the test was repeated for 3 times, and the average value was used as a result."}, "[3]": {"system": "primary cardiac muscle cells induced by TM", "test": "Cardiomyocyte apoptosis induced by TM, TUNEL detection", "settings": "TM 5 μg/mL alone, 24 h, n = 6", "protocol": "as §1\nIt was 24 h after drug interference, the apoptotic cells were detected by terminal deoxynucleotidyl transferase-mediated biotinylated UTP nick end labeling (TUNEL) method, and the cells were treated according to the specification of kit. The cells treated with 0.1 mg/ml DNase I and growing on a glass slide were used as positive control. 5 or more visual fields were randomly selected under light microscope, the apoptotic cells (brown yellow granules seen in nucleus) among the cells were counted. Apoptosis rat=(number of positively stained nuclei/number of all nuclei)×100%."}, "[4]": {"system": "cardiac muscle cells induced by Tunicamycin (TM)", "test": "Survival rate of TM-induced cardiac muscle cells detected by MTT method", "settings": "TM 5 μg/ml alone, MTT", "protocol": "The separation and culture of cardiomyocyte refer to the method of differential adhesion separation (Kreider, A. Messing, H. Doan, S. U. Kim, R. P. Lisak and D. E. Pleasure, Enrichment of Schwann cell cultures from neonatal rat sciatic nerve by differential adhesion, Brain Res 2 (1981), pp. 433-444.), Wistar neonate rats newly born within 24 h were used to obtain primary cardiac muscle cells.\nThe separated cardiac muscle cells were inoculated in an amount of 10^4 cells per well to a 96-well plate, and the volume of each well was 100 μl (marginal wells were filled with sterile PBS). […] After continuous inoculation, each well was added with 20 μl of MTT solution (5 mg/ml, formulated with PBS (pH=7.4), i.e., 0.5% MTT), and the cultivation was continued for 4 h. After the end of cultivation, culture medium in wells was carefully sucked out. Each well was added with 150 μl of DMSO, shaken at a low speed in a shaking table for 10 min, so that the crystal was sufficiently dissolved. The optical density (OD) value of each well was measured at wavelength of 490 nm by enzyme-linked immunoassay instrument, and each well was repeatedly measured for 3 times and the results were recorded. The cell survival rate at each time point was calculated according to: […], and a cell growth curve was drawn by using time as abscissa and optical density as ordinate."}}, "note": "Values joined by “and” are separate entries in the source; they are usually repeats but may differ in a detail not shown here. Identical values can stand only once. Marks after values point to notes of the source that are not given here.", "data": [{"substance": "Tunicamycin [TM, reference compound]", "values": [{"measurement": "expression of Cleaved caspase-12", "setting": "[1]", "result": "obviously expressed"}, {"measurement": "Cardiomyocyte apoptosis rate detected by flow cytometer (%)", "setting": "[2]", "result": "29.98% and 29.98 ± 1.22^a %"}, {"measurement": "TUNEL detection (%) cardiomyocyte apoptosis rate", "setting": "[3]", "result": "30.84 ± 1.26 ^a %"}, {"measurement": "Cell survival rate (%)", "setting": "[4]", "result": "58.8699 ± 10.7785", "unit": "%"}]}]}
